Test results: patent publication US20230043863A1, “HETEROAROMATIC DERIVATIVES FOR USE AS REGULATOR, PREPARATION METHOD THEREFOR AND USE THEREOF” (JIANGSU HANSOH PHARMACEUTICAL GROUP CO., LTD., priority 2018, published 2023)
pIC50: −log10 of the molar value.

Key:
Type in all cases: biochemical
Conditions in all cases: TR-FRET kinase assay
JAK1 = JAK1 (Homo sapiens, UniProt P23458); test: JAK kinase activity inhibition, TR-FRET (JAK1)
Outline: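 TR-FRET read (≈620 and 665 nm) after EDTA quench and 1-24 h antibody detection at RT. Kinase 0.1-20 nM, peptide substrate + ATP, 0.5-5 h RT reaction in HEPES 50-250 mM, MgCl2 5-20 mM. IC50 from 4-parameter fit vs DMSO and no-kinase controls.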

JAK3 = target: T1, JAK3 (Homo sapiens, UniProt P52333); test: JAK kinase activity inhibition, TR-FRET (JAK3)
T1 sequence (P52333 1-1124): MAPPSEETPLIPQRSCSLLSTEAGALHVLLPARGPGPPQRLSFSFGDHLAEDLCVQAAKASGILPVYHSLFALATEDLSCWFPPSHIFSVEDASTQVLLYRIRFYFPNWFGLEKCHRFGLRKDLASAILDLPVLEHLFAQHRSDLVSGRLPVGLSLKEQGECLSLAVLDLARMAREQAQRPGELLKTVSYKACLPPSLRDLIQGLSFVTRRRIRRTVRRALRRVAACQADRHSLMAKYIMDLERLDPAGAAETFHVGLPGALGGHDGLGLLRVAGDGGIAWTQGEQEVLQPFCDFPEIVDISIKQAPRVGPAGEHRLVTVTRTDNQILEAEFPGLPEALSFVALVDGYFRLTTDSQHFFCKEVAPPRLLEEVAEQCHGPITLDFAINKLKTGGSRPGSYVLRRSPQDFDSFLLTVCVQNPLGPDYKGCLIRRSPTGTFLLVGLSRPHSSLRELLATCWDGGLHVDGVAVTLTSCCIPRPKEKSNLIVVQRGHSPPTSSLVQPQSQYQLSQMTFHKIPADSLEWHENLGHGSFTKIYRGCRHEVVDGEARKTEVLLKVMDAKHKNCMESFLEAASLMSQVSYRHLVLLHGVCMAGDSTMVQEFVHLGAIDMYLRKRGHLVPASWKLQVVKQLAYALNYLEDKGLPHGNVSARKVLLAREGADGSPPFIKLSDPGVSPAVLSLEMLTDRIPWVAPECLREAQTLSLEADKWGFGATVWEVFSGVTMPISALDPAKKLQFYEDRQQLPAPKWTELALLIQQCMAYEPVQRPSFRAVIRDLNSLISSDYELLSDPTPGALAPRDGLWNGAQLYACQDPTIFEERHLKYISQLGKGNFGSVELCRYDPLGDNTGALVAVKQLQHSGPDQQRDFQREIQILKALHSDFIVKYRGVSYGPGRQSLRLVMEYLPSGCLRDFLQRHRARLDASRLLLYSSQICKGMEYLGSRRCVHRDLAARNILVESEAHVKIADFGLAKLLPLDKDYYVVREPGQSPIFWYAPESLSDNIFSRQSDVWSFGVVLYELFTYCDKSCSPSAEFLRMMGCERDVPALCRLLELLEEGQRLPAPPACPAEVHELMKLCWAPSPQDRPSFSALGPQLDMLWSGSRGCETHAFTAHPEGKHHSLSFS
Protocol: (§1) Experimental objective: The objective of this test is to test the inhibitory effect of the compound on JAK kinase activity.
(§2) Experimental method: the fluorescence resonance energy transfer (TR-FRET) method was used to test the inhibitory effect of the compound on JAK kinase activity, and the half inhibitory concentration IC50 of the compound on JAK kinase activity was obtained.
(§3) Kinase reaction was carried out in a white 384-well plate (PerkinElmer). 1-5 μL of different concentrations of the compound diluted with DMSO and ddH2O was added into each well, and 1-5 μL of the corresponding solvent was added to the positive control wells, followed by addition of 0.1-20 nM JAK kinase solution diluted with 1-5 μL of kinase buffer (HEPES 50-250 mM, MgCl2 5-20 mM, etc.) was added to each well. 1-5 μL of kinase buffer was added to the negative control well. 1-5 μL of substrate mixture containing peptide substrate and ATP was added. The plate was incubated at room temperature for 0.5-5 hours. […], EDTA and detection solution containing labeled antibody was added, and then the plate was incubated at room temperature for another 1-24 hours. The fluorescence signal value at about 620 nm and 665 nm of each well was measured by BioTek Synergy H1 plate reader, and the inhibition rate was calculated by the fluorescence signal value. According to the inhibition rate of different concentrations, the IC50 of the compound was obtained by curve fitting.
(§4) The percentage inhibition data of the wells treated with the compound was calculated with the positive control wells (DMSO control wells) and negative control wells (no kinase added) on the plate {% inhibition rate=100-[(test compound value-negative control value)]/(Positive control value-negative control value)×100}. IC50 value was calculated by using GraphPad prism to fit the data of different concentrations and corresponding percentage inhibition rates to a 4-parameter non-linear logic formula.

JAK2 = JAK2 (Homo sapiens, UniProt O60674); test: JAK kinase activity inhibition, TR-FRET (JAK2)
Chain of JAK2 (O60674 whole entry): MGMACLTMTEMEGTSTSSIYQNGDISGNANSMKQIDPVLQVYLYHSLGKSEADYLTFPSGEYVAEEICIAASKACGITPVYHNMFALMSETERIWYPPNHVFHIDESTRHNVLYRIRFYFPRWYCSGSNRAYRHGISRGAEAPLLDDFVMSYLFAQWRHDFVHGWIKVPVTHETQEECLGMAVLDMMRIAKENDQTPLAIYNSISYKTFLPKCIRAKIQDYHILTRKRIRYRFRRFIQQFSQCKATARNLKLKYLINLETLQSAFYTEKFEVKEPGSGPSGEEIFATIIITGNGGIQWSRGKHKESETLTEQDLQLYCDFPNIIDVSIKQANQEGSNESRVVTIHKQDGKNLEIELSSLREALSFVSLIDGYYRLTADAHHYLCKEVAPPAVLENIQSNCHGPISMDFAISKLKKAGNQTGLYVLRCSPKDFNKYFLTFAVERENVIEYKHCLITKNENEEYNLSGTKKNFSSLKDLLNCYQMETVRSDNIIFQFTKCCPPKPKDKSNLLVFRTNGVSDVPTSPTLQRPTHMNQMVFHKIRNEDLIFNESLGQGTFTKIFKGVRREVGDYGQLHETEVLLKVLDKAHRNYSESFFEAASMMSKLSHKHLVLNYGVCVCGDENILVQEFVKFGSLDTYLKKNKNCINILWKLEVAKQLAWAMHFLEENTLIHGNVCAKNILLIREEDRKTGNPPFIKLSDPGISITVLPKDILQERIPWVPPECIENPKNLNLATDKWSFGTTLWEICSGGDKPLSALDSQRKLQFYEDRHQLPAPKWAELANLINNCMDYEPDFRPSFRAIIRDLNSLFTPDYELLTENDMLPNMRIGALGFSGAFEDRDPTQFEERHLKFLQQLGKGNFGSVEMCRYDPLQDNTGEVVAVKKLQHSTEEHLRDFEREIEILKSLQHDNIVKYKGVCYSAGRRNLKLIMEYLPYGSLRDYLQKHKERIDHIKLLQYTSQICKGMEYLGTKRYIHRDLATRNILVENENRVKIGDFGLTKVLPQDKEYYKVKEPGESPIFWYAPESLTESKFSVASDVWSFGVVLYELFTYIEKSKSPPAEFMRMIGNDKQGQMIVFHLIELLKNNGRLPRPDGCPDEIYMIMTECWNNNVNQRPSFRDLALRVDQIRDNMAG
Protocol: as §1, §2, §3, §4

Chain of JAK1 (P23458 whole entry): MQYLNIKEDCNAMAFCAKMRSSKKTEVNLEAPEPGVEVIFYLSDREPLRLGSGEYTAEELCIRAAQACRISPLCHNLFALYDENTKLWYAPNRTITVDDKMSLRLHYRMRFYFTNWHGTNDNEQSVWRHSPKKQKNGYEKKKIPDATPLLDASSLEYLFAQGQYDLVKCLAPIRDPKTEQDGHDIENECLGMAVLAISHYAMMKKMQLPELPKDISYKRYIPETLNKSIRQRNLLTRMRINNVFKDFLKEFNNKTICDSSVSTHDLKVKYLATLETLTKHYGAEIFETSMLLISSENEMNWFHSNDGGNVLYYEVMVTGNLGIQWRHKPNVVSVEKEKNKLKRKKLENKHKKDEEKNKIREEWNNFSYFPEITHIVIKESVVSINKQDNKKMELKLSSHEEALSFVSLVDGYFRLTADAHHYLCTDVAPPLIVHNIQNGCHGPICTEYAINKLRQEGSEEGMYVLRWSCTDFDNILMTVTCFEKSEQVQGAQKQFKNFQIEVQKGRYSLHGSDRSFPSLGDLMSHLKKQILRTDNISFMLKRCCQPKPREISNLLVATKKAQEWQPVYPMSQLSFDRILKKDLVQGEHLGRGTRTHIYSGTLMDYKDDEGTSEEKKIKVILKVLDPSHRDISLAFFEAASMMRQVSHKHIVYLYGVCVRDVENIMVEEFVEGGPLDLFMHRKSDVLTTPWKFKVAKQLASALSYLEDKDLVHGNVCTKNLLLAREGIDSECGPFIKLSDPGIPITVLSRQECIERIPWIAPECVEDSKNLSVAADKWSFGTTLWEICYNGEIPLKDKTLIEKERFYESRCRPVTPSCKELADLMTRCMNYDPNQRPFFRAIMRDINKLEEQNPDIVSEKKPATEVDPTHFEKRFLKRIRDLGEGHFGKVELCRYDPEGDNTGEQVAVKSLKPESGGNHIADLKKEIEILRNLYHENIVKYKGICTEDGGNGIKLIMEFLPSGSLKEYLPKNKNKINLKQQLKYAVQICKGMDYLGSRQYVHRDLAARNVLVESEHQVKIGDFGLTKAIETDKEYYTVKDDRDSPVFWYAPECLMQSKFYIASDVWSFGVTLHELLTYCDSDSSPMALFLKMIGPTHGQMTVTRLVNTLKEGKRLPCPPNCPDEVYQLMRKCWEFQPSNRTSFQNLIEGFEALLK

Structure (SMILES)	pIC50 (JAK1)	pIC50 (JAK3)	pIC50 (JAK2)
Cc1cnc(Nc2cc3ncccc3c(N[C@@H]3C[C@H]4CC[C@@H](C3)N4CCC#N)n2)s1 [Embodiment 1, 3-((3-exo)-3-((7-((5-methylthioazol-2-yl)amino)-1,6-diazanaphthalen-5-yl)amino)-8-azabicyclo[3.2.1]oct-8-yl)propionitrile]	9.47	8.57	9.16
Cc1cc(Nc2nc(N[C@@H]3C[C@H]4CC[C@@H](C3)N4CCC#N)nc3ccsc23)n[nH]1 [Embodiment 60, 3-((3-exo)-3-((4-((5-methyl-1H-pyrazol-3-yl)amino)thieno[3,2-d]pyrimidin-2-yl)amino)-8-azabicyclo[3.2.1]oct-8-yl)propionitrile]	9.92		
COc1ccc2c(Nc3cc(C)[nH]n3)nc(N[C@@H]3C[C@H]4CC[C@@H](C3)N4CCC#N)nc2c1 [Embodiment 169, 3-((3-exo)-3-((7-methoxyl-4-((5-methyl-1H-pyrazol-3-yl)amino)quinazolin-2-yl)amino)-8-azabicyclo[3.2.1]oct-8-yl)propionitrile]	9.20	7.54	8.97
Cc1cc(Nc2nc(N[C@@H]3C[C@H]4CC[C@@H](C3)N4CCC#N)nc3cc(Br)ccc23)n[nH]1 [Embodiment 170, 3-((3-exo)-3-((7-bromine-4-((5-methyl-1H-pyrazol-3-yl)amino)quinazolin-2-yl)amino)-8-azabicyclo[3.2.1]oct-8-yl)propionitrile]	9.18		
Cc1cc(Nc2nc(N[C@@H]3C[C@H]4CC[C@@H](C3)N4CCC#N)nc3cc(Cl)ccc23)n[nH]1 [Embodiment 171, 3-((3-exo)-3-((7-chloro-4-((5-methyl-1H-pyrazol-3-yl)amino)quinazolin-2-yl)amino)-8-azabicyclo[3.2.1]oct-8-yl)propionitrile]	9.07	7.63	9.17
Cc1cc(Nc2nc(N[C@@H]3C[C@H]4CC[C@@H](C3)N4S(=O)(=O)N3CC(C#N)C3)nc3ccccc23)n[nH]1 [Embodiment 213, 1-(((3-exo)-3-((4-((5-methyl-1H-pyrazol-3-yl)amino)quinazolin-2-yl)amino)-8-azabicyclo[3.2.1]oct-8-yl)sulfonyl)azetindin-3-formonitrile]	9.70	7.90	9.52
Cc1cc(Nc2nc(N[C@@H]3C[C@H]4CC[C@@H](C3)N4S(=O)(=O)N3CC(C#N)C3)nc3cc(Cl)ccc23)n[nH]1 [Embodiment 214]	9.46	6.88	9.09
Cc1cc(Nc2nc(N[C@@H]3C[C@H]4CC[C@@H](C3)N4S(=O)(=O)N3CC(C#N)C3)nc3sccc23)n[nH]1 [Embodiment 237, 1-(((3-exo)-3-((4-((5-methyl-1H-pyrazol-3-yl)amino)thieno[2,3-d]pyrimidin-2-yl)amino)-8-azabicyclo[3.2.1]oct-8-yl)sulfonyl)azetindin-3-formonitrile]	10.15	8.44	9.10
Cc1cc(Nc2nc(N[C@@H]3C[C@H]4CCC[C@@H](C3)N4S(=O)(=O)N3CC(C#N)C3)nc3sccc23)n[nH]1 [Embodiment 238]	10.52	9.15	9.36
Cc1cc(Nc2nc(N[C@@H]3C[C@H]4CCC[C@@H](C3)N4C(=O)CN3CCOCC3)nc3sccc23)n[nH]1 [Embodiment 246, 1-((3-exo)-3-((4-((5-methyl-1H-pyrazol-3-yl)amino)thieno[2,3-d]pyrimidin-2-yl)amino)-9-azabicyclo[3.3.1]non-9-yl)-2-morpholinoethane-1-one]	9.66	8.16	9.15
CNCC(=O)N1[C@@H]2CCC[C@H]1C[C@H](Nc1nc(Nc3cc(C)[nH]n3)c3ccsc3n1)C2 [Embodiment 247, 1-((3-exo)-3-((4-((5-methyl-1H-pyrazol-3-yl)amino)thieno[2,3-d]pyrimidin-2-yl)amino)-9-azabicyclo[3.3.1]non-9-yl)-2-(methylamino)-ethane-1-one]	10.00	8.62	9.14
Cc1cc(Nc2nc(N(C)[C@@H]3C[C@H]4CCC[C@@H](C3)N4C(=O)CN3CCN(C)CC3)nc3sccc23)n[nH]1 [Embodiment 257, 1-((3-exo)-3-(methyl(4-((5-methyl-1H-pyrazol-3-yl)amino)thieno[2,3-d]pyrimidin-2-yl)amino)-9-azabicyclo[3.3.1]non-9-yl)-2-(4-methylpiperazin-1-yl)ethane-1-one]	10.15	7.70	9.08
Cc1cc(Nc2nc(N[C@@H]3C[C@H]4CCC[C@@H](C3)N4C(=O)c3ccccn3)nc3sccc23)n[nH]1 [Embodiment 260, ((3-exo)-3-((4-((5-methyl-1H-pyrazol-3-yl)amino)thieno[2,3-d]pyrimidin-2-yl)amino)-9-azabicyclo[3.3.1]non-9-yl)(pyridin-2-yl)methanone]	9.72	8.42	9.44
Cc1cc(Nc2nc(N[C@@H]3C[C@H]4CC[C@@H](C3)N4CCC#N)nc3sc(C)cc23)n[nH]1 [Embodiment 277, 3-((3-exo)-3-((6-methyl-4-((5-methyl-1H-pyrazol-3-yl)amino)thieno[2,3-d]pyrimidin-2-yl)amino)-8-azabicyclo[3.2.1]oct-8-yl)propionitrile]	9.21	8.08	9.00
Cc1cc(Nc2nc(N[C@@H]3C[C@H]4CCC[C@@H](C3)N4CCC#N)nc3scnc23)n[nH]1 [Embodiment 278, 3-((3-exo)-3-((7-((5-methyl-1H-pyrazol-3-yl)amino)thiazolo[5,4-d]pyrimidin-5-yl)amino)-9-azabicyclo[3.3.1]non-9-yl)propionitrile]	9.15	8.15	8.87
